This assay has as its system porcine liver esterase (PLE). Description: HPLC of naproxen release, initial rates, Lineweaver-Burk. In kind it is biochemical, Sus scrofa. Conditions: PBS, 5% acetonitrile, 25 °C, 120 IU/mL PLE, 29-91 μM substrate; ester hydrolysis.

Take `COc1ccc2cc(C(C)C(=O)Oc3cccc4c3C(=O)c3c(O)cccc3C4)ccc2c1` (stereo not shown) [compound 8, 8-Hydroxy-9-oxo-9,10-dihydroanthracen-1-yl 2-(6-methoxynaphthalen-2-yl)propanoate]: the Km was determined as 65.1 ± 0.99 µM.

By Km is commonly meant the concentration of substrate that gives half-maximal velocity.
